Experimental data published in patent publication US20060167091A1, “Acaricide” (priority 2003, published 2006).

Test system: Two-spotted spider mites
Assay: Miticidal test on two-spotted spider mites
Type: in vivo, Tetranychus urticae Koch
Conditions: Tetranychus urticae, 48 h, 2 days after spraying, read-out: Mortality rate
Source text: Two-spotted spider mites from the Nagano prefecture, which are poorly sensitive to chemicals, were used as mite specimens. Preparation A and Preparation B were used as chemical specimens.
A plastic cup (trade name: KP-120, manufactured by Kohnoike plastic Co., Ltd.) was filled with tap water, and the plastic cup was covered with a lid having an incision therein. A piece of non-woven fabric (4.5×5.5 cm) was cut for about 4 cm parallel to its longer side 1 cm from the edge. The portion hanging loose was suspended inside the plastic cup through the incision. A kidney bean leaf (about 3.5×4.5 cm) was placed on the sufficiently soaked, non-woven fabric. Twenty female adults of two-spotted spider mites were released into each cup.
Preparation A and Preparation B each diluted with tap water to specific concentrations were mixed, and the mixture was sprayed in a volume of 2 ml using a spray tower (Potter Spray Tower, manufactured by Burkard Manufacturing Co. Ltd, at a spraying pressure of 5 lb/inch). The kidney bean leaf was placed in a thermostatic chamber having a temperature of 25±2° C. and a humidity of 60%. The numbers of live and dead mites were counted 2 days later. The mortality rate was calculated using the equation provided below.
For comparison, mortality rates were calculated in the same manner as above except that Formulation A and Formulation B each diluted with tap water to specific concentrations were used one without each other. Mortality rate=(1−V/W)×100 where V is the survival rate in the treated area, and W is the survival rate in the untreated area.
Furthermore, the effectiveness (E) anticipated from the miticide of the present invention was calculated using the Colby equation (Weeds 15, 20-22 (1967)) to obtain a mathematical effectiveness (%): E=x+y−(x·y/100) where E is the effectiveness expressed in % anticipated from Compound A and chlorfenapyr when used at concentrations of p and q, respectively; x is the effectiveness of Compound A when used at a concentration of p; and y is the effectiveness of chlorfenapyr when used at a concentration of q.

Row | Structure (SMILES) | mortality at 12.5 ppm (Compound A 12.5 ppm alone (chlorfenapyr 0 ppm), female adults on kidney bean leaf) [%] | mortality at 25 ppm (Compound A 25 ppm alone (chlorfenapyr 0 ppm)) [%] | mortality at 50 ppm (Compound A 50 ppm alone (chlorfenapyr 0 ppm)) [%] | mortality at 100 ppm (Compound A 100 ppm alone (chlorfenapyr 0 ppm)) [%] | mortality at 200 ppm (Compound A 200 ppm alone (chlorfenapyr 0 ppm)) [%] | mortality at 0.4 ppm (chlorfenapyr 0.4 ppm alone (Compound A 0 ppm)) [%] | mortality at 1 ppm (chlorfenapyr 1 ppm alone (Compound A 0 ppm)) [%] | mortality at 2 ppm (chlorfenapyr 2 ppm alone (Compound A 0 ppm)) [%] | mortality at 5 ppm (chlorfenapyr 5 ppm alone (Compound A 0 ppm)) [%] | mortality at 10 ppm (chlorfenapyr 10 ppm alone (Compound A 0 ppm)) [%]
1 | COCCOC(=O)C(C#N)(C(=O)c1ccccc1C(F)(F)F)c1ccc(C(C)(C)C)cc1 (stereo not shown) [Compound A, methoxyethyl 2-(4-tert-butylphenyl)-2-(2-trifluoromethylbenzoyl)cyanoacetate] | 19 | 45 | 48 | 25 | 66 | – | – | – | – | –
2 | CCOCn1c(-c2ccc(Cl)cc2)c(C#N)c(Br)c1C(F)(F)F [chlorfenapyr, 4-bromo-2-(4-chlorophenyl)-1-ethoxymethyl-5-trifluoromethylpyrrole-3-carbonitrile] | – | – | – | – | – | 0 | 0 | 0 | 0 | 84
